# What was measured:
# Assay type in all cases: biochemical
# [1] = target: Caspase-8 (Homo sapiens, UniProt Q14790); assay: Kinetic compound screening, progress curve method, caspase-8; conditions: for Ki(app) Caspase-8: Table III, Ki(app) = Kass or Kobs/I, 10 nM active caspase-8; for Caspase-8 Ki (app): Table IV, NI = no inhibition at concentrations tested
# Method in brief: (§1)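 Progress-curve method under pseudo-first-order kinetics, giving Ki(app) (kobs/I, M^−1s^−1), in caspase reaction buffer. Active enzyme at 5 nM (caspase-3, -7), 10 nM (caspase-8) or 50 nM (caspase-9), preactivated at 37 °C for 5, 10 or 40 min respectively. Some caspase-9 compounds also run with 1 M sodium citrate replacing sucrose.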
# [2] = target: T1, Caspase-3 (Homo sapiens, UniProt P42574); assay: Kinetic compound screening, progress curve method, caspase-3; conditions: for Ki(app) Caspase-3: Table III, Ki(app) = Kass or Kobs/I, 5 nM active caspase-3; for Caspase-3 Ki(app): Table IV
# T1 sequence (P42574 29-175 limits assumed): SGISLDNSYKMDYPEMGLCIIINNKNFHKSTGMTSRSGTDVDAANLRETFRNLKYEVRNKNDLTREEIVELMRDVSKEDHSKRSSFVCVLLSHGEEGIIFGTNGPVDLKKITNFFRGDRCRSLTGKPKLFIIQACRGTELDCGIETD
# T1 sequence (P42574 176-277 limits assumed): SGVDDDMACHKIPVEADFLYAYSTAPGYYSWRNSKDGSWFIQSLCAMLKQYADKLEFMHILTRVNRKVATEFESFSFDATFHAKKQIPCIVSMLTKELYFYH
# Method in brief: as §1
# [3] = target: T2, Caspase-7 (Homo sapiens, UniProt P55210); assay: Kinetic compound screening, progress curve method, caspase-7; conditions: for Ki(app) Caspase-7: Table III, Ki(app) = Kass or Kobs/I, 5 nM active caspase-7; for Caspase-7 Ki (app): Table IV
# T2 sequence (P55210 1-303): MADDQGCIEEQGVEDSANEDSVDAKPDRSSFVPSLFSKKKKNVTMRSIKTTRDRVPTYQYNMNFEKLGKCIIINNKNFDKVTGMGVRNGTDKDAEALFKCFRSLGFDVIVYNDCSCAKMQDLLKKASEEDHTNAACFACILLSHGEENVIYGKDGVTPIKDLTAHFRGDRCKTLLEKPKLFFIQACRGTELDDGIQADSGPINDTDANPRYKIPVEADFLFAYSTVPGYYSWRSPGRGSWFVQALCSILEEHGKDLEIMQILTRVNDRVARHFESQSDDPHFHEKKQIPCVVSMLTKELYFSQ
# Method in brief: as §1
# Chain of Caspase-8 (Q14790 217-479): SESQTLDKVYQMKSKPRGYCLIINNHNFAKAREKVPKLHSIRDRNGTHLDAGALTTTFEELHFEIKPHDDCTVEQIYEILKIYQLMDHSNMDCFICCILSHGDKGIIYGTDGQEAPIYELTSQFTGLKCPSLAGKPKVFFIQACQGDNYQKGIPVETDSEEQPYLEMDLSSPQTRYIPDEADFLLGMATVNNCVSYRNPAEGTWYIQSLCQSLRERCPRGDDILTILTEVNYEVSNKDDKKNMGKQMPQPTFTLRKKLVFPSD
Molecule,Ki(app) Caspase-8 [1],Caspase-8 Ki (app) [1],Ki(app) Caspase-3 [2],Caspase-3 Ki(app) [2],Ki(app) Caspase-7 [3],Caspase-7 Ki (app) [3],"inhibition of caspase-8, in words [1]"
"Cc1cccc(C)c1C(=O)OCC(=O)[C@H](CC(=O)O)NC(=O)[C@@H](NC(=O)[C@H](Cc1ccncc1)NC(=O)[C@H](CC(=O)O)NC(=O)Cc1ccc(O)c([N+](=O)[O-])c1)C(C)C [AB06, Np-D-3-V-D-DMBA]","32,909 M^−1s^−1","32,909 M-1s-1","7,456,511 M^−1s^−1","7,456,511 M-1s-1","968,070 M^−1s^−1","968,070 M-1s-1",–
"Cc1cccc(C)c1C(=O)OCC(=O)[C@H](CC(=O)O)NC(=O)[C@@H](NC(=O)[C@H](CCC(=O)O)NC(=O)[C@H](CC(=O)O)NC(=O)Cc1ccc(O)c([N+](=O)[O-])c1)C(C)C [AB09, Np-D-E- V-D-DMBA]","1,077,839 M^−1s^−1","1,077,839 M-1s-1","10,922,261 M^−1s^−1","10,922,261 M-1s-1","1,529,040 M^−1s^−1","1,529,040 M-1s-1",strong activity towards caspase-8
"Bio-EVD-AOMK [KMB01, reference compound]","164,052 M^−1s^−1","164,052 M-1s-1","577,913 M^−1s^−1","577,913 M-1s-1","288,213 M^−1s^−1","288,213 M-1s-1",–
